Measured values taken from US6864251B2, “Treatment of LTB4-mediated inflammatory disorders with optically-pure (R)-2,3-benzodiazepines” (Vela Pharmaceuticals, Inc., priority 2002, dated 2005).
pKi: −log10 of the molar value. Where “and” joins values, the source holds several entries; their conditions need not be identical. Equal entries are not always repeated.

Columns and labels:
LTB4 receptor = LTB4 receptor (Cavia porcellus, UniProt H0VYV8); experiment: LTB4 binding assay, displacement of [3H]LTB4, guinea pig spleen membrane
Chain of LTB4 receptor (H0VYV8 1-348): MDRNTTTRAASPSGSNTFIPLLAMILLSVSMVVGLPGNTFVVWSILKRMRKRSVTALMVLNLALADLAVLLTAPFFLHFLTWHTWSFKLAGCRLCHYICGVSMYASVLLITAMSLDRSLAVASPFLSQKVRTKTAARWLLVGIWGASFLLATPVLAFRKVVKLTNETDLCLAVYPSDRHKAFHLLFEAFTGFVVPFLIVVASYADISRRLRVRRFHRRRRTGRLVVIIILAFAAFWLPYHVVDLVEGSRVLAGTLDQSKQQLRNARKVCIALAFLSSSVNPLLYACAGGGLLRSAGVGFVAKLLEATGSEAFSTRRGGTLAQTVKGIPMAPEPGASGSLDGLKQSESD
Experimental: Reactions were carried out in a phosphate buffer (pH 7.4) containing NaCl, MgCl2, EDTA, and bacitracin. The reaction volume of 150 μL containing 1.0 mg/mL of the Guinea pig spleen membrane preparation and 1 nM [^3H]LTB4, with or without a competitor, was incubated at 0-4° C. for 2 hours. Competitors included 2,3-benzodiazepines, and LTB4 as a control. The reaction was terminated by rapid vacuum filtration onto glass fiber filters. The filter was washed with cold buffer, dried and placed in a scintillation vial. Radioactivity trapped onto the filters was determined and compared to control values in order to ascertain any interactions of the test compound with the LTB4 binding site.

[1] = tested on: LTB4-induced dermal inflammation; experiment: Rabbit model of LTB4-induced dermal inflammation, histopathology of intradermal challenge sites; type: in vivo, New Zealand White Rabbits; design: key to Inflammation score / Edema score: 0=normal; T=trace; 1=minimal; 2=mild; 3=moderate; 4=marked; conditions: test article IP 60 mg/kg (dexamethasone 0.5 mg/kg), 4 hr after challenge
Experimental: Test compounds were prepared as follows. The vehicle was first prepared by dissolving […] of hydroxypropylmethylcellulose 2910 (HPMC)(Sigma Chemical, St. Louis, Mo.) in 50 mL of 0.9% saline to yield a concentration of 2% HPMC. The three test articles, (R)-, (S)- and racemic tofisopam, were formulated by adding 1 g of each test article to 10 mL of vehicle.
On Day 0, the rabbits were sedated with ketamine/xylazine (35/5 mg/kg, s.c.) and an area of approximately 8×14 cm on the back was closely and carefully clipped to expose the skin, but not inflame or otherwise damage the epithelium. A grid of ten squares each approximately 2.5×2.5 cm was drawn on each animal's back using an indelible marker. The animals were then dosed intraperitoneally with the appropriate test article corresponding to the group. Thirty minutes after dosing with test or control article, the animals were challenged intradermally with the LTB4 or LTB4-aminopropamide (LTB4-AP, a synthetic LTB4 agonist) in the appropriate site as shown in Table 4. Each injection site was marked with an indelible marker in order to identify the exact location of the intradermal injection site. Sixty minutes after challenge, the animals were treated again with tofisopam or control articles. The animals were sacrificed 4 hrs. after challenge, and the intradermal injection sites were excised, fixed in 10% neutral buffered formalin (NBF), and submitted for histopathology. H&E-stained sections were read by a board-certified veterinary pathologist using light microscopy.
All animals were sacrificed 4 hr after challenge. The intradermal challenge sites were excised, placed on unique cardboard squares, fixed in 10% NBF, and submitted for histopathology. The skin sections included the epidermis and the subcutis, down to the back musculature.
The marked skin sections were fixed for at least 48 hours on small cardboard squares. At gross trimming, three levels were cut through marked skin region in order to assure that the injection sites is brought into the plane of section. The skins were gross trimmed, processed by dehydration, embedded in paraffin, sectioned at 3-5 μm, and stained with hematoxylin and eosin.
The tissues were evaluated histopathologically via light microscopy by a board-certified veterinary pathologist. Initially, the identity of the slides was masked in order to perform the initial evaluation and rank the slides. The slides were then unmasked and there was a careful assessment of the lesions and careful comparison of the tofisopam-treated sites to the vehicle and positive control tissues. The lesions were graded based upon the degree of inflammation and the degree of edema. The severity of the inflammation and edema was keyed as follows: 0=normal; T=trace; 1=minimal; 2=mild; 3=moderate; 4=marked.

| SMILES | pKi (LTB4 receptor) | Edema score ([1]; injection site: LTB4 500 ng) | Inflammation score ([1]; injection site: LTB4 500 ng) | Edema score ([1]; injection site: LTB4 1000 ng) | Inflammation score ([1]; injection site: LTB4 1000 ng) | Edema score ([1]; injection site: LTB4 2000 ng) | Edema score ([1]; injection site: LTB-ap 500 ng) | Inflammation score ([1]; injection site: LTB-ap 500 ng) | Edema score ([1]; injection site: LTB-ap 1000 ng) | Inflammation score ([1]; injection site: LTB-ap 1000 ng) | Edema score ([1]; injection site: LTB-ap 2000 ng) | Inflammation score ([1]; injection site: LTB-ap 2000 ng) | Edema score ([1]; injection site: Vehicle 0 ng) | Inflammation score ([1]; injection site: Vehicle 0 ng) |
| --- | --- | --- | --- | --- | --- | --- | --- | --- | --- | --- | --- | --- | --- | --- |
| CCCCC/C=C\C[C@@H](O)/C=C/C=C/C=C\[C@@H](O)CCCC(=O)O [LTB4, Leukotriene B4] | 9.05 to 9.70 |  |  |  |  |  |  |  |  |  |  |  |  |  |
| C[C@@H]1C[C@H]2[C@@H]3CCC4=CC(=O)C=C[C@]4(C)[C@@]3(F)[C@@H](O)C[C@]2(C)[C@@]1(O)C(=O)CO [dexamethasone] |  | 2 and 3 | 2 and 3 | 2 and 3 | 3 | 3 and 2 and 1 | 2 and 3 | 3 and 2 | 3 | 2 | 3 and 1 and 2 | 2 and 1 | 1 and 0 | 1 and 0 |
